Results published in the NIST ThermoML archive (doi:10.1016/j.fluid.2015.08.029).

Test: xn = mol fraction of the nth substance listed
Conditions: Fluid (supercritical or subcritical phases), Buoyancy - hydrostatic balance with magnetic suspension - one sinker, x2 = 0.95

C [methane] + O=C=O
Conditions	mass density [kg/m3]
305.16 K, 9767.1 kPa	617.141
305.16 K, 9967.5 kPa	629.726
305.17 K, 9370.3 kPa	584.841
306.1 K, 7971 kPa	291.729
306.14 K, 8569.3 kPa	407.211
306.15 K, 8769.4 kPa	456.137
306.15 K, 9367.9 kPa	559.009
306.15 K, 9567.4 kPa	580.099
306.15 K, 9767.6 kPa	597.343
306.16 K, 9168.1 kPa	532.249
306.17 K, 8170.1 kPa	321.108
306.17 K, 8969 kPa	498.232
306.17 K, 9967.5 kPa	611.559
306.18 K, 8370.6 kPa	359.348
307.11 K, 7970.8 kPa	279.021
307.15 K, 8769.2 kPa	417.545
307.15 K, 9369.4 kPa	530.475
307.15 K, 9968.3 kPa	592.558
307.16 K, 8569.4 kPa	373.594
307.16 K, 9769.9 kPa	575.499
307.17 K, 8370.1 kPa	335.111
307.17 K, 9567.7 kPa	554.846
307.18 K, 8170.2 kPa	303.687
307.18 K, 8969.6 kPa	460.414
307.19 K, 9168.1 kPa	498.151
308.14 K, 7971.8 kPa	268.365
308.15 K, 8969.6 kPa	425.843
308.16 K, 8773.5 kPa	385.91
308.16 K, 9568.1 kPa	527.899
308.16 K, 9772 kPa	552.011
308.16 K, 9967.3 kPa	570.979
308.17 K, 8171.2 kPa	290.106
308.17 K, 8372.6 kPa	316.707
308.17 K, 9169 kPa	464.65
308.17 K, 9368.5 kPa	499.11
308.18 K, 8570.3 kPa	347.84
309.13 K, 7972 kPa	259.723
309.15 K, 8969.7 kPa	395.876
309.15 K, 9967.3 kPa	548.766
309.16 K, 9568.6 kPa	499.83
309.16 K, 9768.9 kPa	526.36
309.17 K, 8171 kPa	279.024
309.17 K, 8570.8 kPa	328.632
309.17 K, 8772.2 kPa	360.359
309.17 K, 9170.1 kPa	432.906
309.17 K, 9369 kPa	468.272
309.18 K, 8371.4 kPa	301.81
310.13 K, 7971.6 kPa	252.206
310.15 K, 9168.8 kPa	404.887
310.15 K, 9768.4 kPa	500.279
310.16 K, 9368.7 kPa	438.984
310.17 K, 8169.9 kPa	269.525
310.17 K, 8371.3 kPa	289.994
310.17 K, 8570.5 kPa	313.293
310.17 K, 8969.4 kPa	370.784
310.17 K, 9568.2 kPa	470.935
310.17 K, 9969.4 kPa	524.504
310.18 K, 8771.3 kPa	340.177
311.13 K, 7972.7 kPa	245.539
311.15 K, 8969.4 kPa	351.047
311.16 K, 9169.2 kPa	380.674
311.17 K, 8170.7 kPa	261.395
311.17 K, 8372.1 kPa	279.845
311.17 K, 8571.3 kPa	300.517
311.17 K, 9768.1 kPa	473.276
311.17 K, 9967.8 kPa	499.737
311.18 K, 9568.6 kPa	443.32
311.19 K, 8770.5 kPa	323.691
311.19 K, 9369 kPa	411.617
312.13 K, 7972.4 kPa	239.656
312.17 K, 8771.1 kPa	310.807
312.17 K, 9568.6 kPa	418.783
312.17 K, 9768.9 kPa	448.071
312.17 K, 9967.7 kPa	475.106
312.18 K, 8571.5 kPa	289.726
312.18 K, 9169.8 kPa	360.525
312.19 K, 8172.7 kPa	254.332
312.19 K, 8372.2 kPa	270.995
312.19 K, 8970.5 kPa	334.208
312.19 K, 9369.6 kPa	388.871
313.14 K, 7973.3 kPa	234.195
313.17 K, 8571.8 kPa	280.559
313.17 K, 8771.6 kPa	299.532
313.17 K, 8970.6 kPa	320.608
313.17 K, 9170.2 kPa	344.172
313.17 K, 9369.7 kPa	369.68
313.17 K, 9768.4 kPa	424.626
313.18 K, 8171.5 kPa	247.96
313.18 K, 8372.5 kPa	263.421
313.18 K, 9569.1 kPa	396.668
